How the values were obtained:
Assay in all cases: CEREP radioligand binding
[1] = target: T1, 5-HT transporter (h) (Homo sapiens, UniProt P31645); conditions: % of control specific binding
T1 construct: purchased CEREP
Description: (§1) SB-334867 was evaluated in a selectivity screen performed at CEREP (Paris, France). The screen consisted of binding assays on a panel of 79 target receptors. The specific binding (SB) of a radioligand to each target receptor was defined as the difference between the total binding and the nonspecific binding determined in the presence of a cold competitor in excess. […] Details on the CEREP screen are available from www.cerep.fr.

[2] = target: T2, 5-HT1A (h) (Homo sapiens, UniProt P08908); conditions: % of control specific binding
T2 construct: purchased CEREP
Description: as §1

[3] = target: T3, 5-HT1B (Rattus norvegicus, UniProt P28564); conditions: % of control specific binding
T3 construct: purchased CEREP
Description: as §1

[4] = target: T4, 5-HT2A (h) (Homo sapiens, UniProt P28223); conditions: % of control specific binding
T4 construct: purchased CEREP
T4 sequence (P28223 whole entry): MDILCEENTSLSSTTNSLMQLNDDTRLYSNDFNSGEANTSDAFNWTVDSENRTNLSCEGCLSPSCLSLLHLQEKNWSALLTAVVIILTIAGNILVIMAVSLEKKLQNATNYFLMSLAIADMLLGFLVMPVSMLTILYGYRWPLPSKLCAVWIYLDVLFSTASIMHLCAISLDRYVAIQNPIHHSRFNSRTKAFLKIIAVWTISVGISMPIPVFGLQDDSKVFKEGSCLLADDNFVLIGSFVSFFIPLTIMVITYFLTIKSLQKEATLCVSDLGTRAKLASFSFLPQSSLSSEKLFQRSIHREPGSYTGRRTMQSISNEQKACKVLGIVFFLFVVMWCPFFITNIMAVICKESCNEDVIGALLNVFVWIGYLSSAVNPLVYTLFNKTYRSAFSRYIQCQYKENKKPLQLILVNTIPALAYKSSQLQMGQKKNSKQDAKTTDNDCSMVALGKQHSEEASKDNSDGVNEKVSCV
Description: as §1

[5] = target: T5, 5-HT7 (h) (Homo sapiens, UniProt P34969); conditions: % of control specific binding
T5 construct: purchased CEREP
Description: as §1

[6] = target: T6, A3 (h) (Homo sapiens, UniProt P0DMS8)
T6 construct: purchased CEREP
T6 sequence (P0DMS8 whole entry): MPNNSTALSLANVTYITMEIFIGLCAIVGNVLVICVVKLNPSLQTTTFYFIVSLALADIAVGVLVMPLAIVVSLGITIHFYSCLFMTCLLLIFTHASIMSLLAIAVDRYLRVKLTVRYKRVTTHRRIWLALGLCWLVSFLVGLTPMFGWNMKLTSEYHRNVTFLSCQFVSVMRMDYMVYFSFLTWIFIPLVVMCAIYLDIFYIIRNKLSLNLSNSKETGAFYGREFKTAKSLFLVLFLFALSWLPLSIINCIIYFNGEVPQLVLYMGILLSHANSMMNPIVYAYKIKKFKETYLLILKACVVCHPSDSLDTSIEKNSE
Description: as §1

[7] = target: T7, AT1 (h) (Homo sapiens, UniProt P30556); conditions: % of control specific binding
T7 construct: purchased CEREP
T7 sequence (P30556 whole entry): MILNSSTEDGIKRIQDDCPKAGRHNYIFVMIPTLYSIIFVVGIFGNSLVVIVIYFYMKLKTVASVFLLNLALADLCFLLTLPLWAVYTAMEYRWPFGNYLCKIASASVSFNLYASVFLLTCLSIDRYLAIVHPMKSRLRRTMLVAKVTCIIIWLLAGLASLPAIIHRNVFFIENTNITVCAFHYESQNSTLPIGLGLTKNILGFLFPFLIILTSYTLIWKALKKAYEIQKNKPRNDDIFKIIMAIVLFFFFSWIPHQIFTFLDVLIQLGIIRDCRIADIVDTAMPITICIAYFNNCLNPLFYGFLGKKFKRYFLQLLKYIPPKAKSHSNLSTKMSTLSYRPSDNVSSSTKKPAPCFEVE
Description: as §1

[8] = target: T8, AT2 (h) (Homo sapiens, UniProt P50052); conditions: % of control specific binding
T8 construct: purchased CEREP
T8 sequence (P50052 whole entry): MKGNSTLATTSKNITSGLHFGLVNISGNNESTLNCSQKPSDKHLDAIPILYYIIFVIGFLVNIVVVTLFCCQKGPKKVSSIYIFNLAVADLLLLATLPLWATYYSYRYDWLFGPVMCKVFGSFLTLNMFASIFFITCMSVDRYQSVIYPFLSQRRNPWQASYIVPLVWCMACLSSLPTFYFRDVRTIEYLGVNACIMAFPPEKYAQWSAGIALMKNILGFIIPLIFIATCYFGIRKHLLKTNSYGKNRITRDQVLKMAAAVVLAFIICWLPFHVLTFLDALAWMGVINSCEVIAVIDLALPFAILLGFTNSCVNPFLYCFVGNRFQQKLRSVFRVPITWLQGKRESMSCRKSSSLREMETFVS
Description: as §1

[9] = test system: BB (non-selective); conditions: % of control specific binding
Description: as §1

[10] = target: T9, BZD (peripheral) (Rattus norvegicus, UniProt P16257); conditions: % of control specific binding
T9 construct: purchased CEREP
T9 sequence (P16257 whole entry): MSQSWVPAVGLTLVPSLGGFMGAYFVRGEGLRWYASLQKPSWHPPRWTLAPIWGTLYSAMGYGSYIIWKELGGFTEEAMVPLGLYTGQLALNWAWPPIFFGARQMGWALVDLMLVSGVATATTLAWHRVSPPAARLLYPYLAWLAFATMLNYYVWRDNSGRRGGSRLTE
Description: as §1

[11] = target: T10, CCKA (h) (CCK1) (Homo sapiens, UniProt P32238); conditions: % of control specific binding
T10 construct: purchased CEREP
T10 sequence (P32238 whole entry): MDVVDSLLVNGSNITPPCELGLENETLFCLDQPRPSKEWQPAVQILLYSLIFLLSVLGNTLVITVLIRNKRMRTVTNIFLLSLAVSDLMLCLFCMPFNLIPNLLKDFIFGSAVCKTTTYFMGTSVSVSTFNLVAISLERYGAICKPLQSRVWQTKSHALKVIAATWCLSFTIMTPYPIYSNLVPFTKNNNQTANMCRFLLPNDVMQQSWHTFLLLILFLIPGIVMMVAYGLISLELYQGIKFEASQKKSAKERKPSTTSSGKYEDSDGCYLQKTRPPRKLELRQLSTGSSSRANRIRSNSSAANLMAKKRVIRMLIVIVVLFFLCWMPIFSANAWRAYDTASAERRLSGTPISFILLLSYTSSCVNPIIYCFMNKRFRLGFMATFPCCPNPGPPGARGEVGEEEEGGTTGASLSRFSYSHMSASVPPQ
Description: as §1

[12] = target: T11, CCR1 (h) (Homo sapiens, UniProt P32246); conditions: % of control specific binding
T11 construct: purchased CEREP
Description: as §1

[13] = target: T12, CGRP (h) (Homo sapiens, UniProt O60894+Q16602); conditions: % of control specific binding
T12 construct: purchased CEREP
Description: as §1

[14] = target: T13, D1 (h) (Homo sapiens, UniProt P21728); conditions: % of control specific binding
T13 construct: purchased CEREP
Description: as §1

[15] = target: T14, D2S (h) (Homo sapiens, UniProt P14416); conditions: % of control specific binding
T14 construct: purchased CEREP
T14 sequence (P14416 1-414 isoform P14416-2): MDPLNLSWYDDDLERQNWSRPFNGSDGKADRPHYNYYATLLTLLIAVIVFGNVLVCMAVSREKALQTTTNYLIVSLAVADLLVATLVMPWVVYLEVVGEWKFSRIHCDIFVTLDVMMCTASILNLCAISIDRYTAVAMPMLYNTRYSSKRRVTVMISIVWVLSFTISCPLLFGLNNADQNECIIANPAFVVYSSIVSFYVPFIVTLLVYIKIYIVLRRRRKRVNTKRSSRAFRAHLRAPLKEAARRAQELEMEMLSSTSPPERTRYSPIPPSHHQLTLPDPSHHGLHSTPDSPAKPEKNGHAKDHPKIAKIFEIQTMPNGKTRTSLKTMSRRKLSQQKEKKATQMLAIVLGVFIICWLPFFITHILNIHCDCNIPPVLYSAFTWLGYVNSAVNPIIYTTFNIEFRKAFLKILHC
Description: as §1

[16] = target: T15, D3 (h) (Homo sapiens, UniProt P35462); conditions: % of control specific binding
T15 construct: purchased CEREP
Description: as §1

[17] = target: T16, ETB (h) (Homo sapiens, UniProt P24530); conditions: % of control specific binding
T16 construct: purchased CEREP
T16 sequence (P24530 27-442): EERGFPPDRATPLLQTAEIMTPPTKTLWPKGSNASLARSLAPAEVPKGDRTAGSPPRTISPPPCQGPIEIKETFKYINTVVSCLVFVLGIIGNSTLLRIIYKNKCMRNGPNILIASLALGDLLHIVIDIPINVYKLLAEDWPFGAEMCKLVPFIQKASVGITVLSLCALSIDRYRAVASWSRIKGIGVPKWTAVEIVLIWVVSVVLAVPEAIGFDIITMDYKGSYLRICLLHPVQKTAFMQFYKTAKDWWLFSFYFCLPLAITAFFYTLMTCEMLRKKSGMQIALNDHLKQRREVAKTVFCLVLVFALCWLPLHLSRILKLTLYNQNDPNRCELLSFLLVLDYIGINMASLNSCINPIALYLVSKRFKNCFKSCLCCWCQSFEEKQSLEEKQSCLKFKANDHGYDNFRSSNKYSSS
Description: as §1

[18] = target: T17, H1 (h) (Homo sapiens, UniProt P35367); conditions: % of control specific binding
T17 construct: purchased CEREP
Description: as §1

[19] = target: T18, H2 (h) (Homo sapiens, UniProt P25021); conditions: % of control specific binding
T18 construct: purchased CEREP
Description: as §1

[20] = test system: K+V channel; conditions: % of control specific binding
Description: as §1

[21] = target: T19, M1 (h) (Homo sapiens, UniProt P11229); conditions: % of control specific binding
T19 construct: purchased CEREP
Description: as §1

[22] = target: T20, M2 (h) (Homo sapiens, UniProt P08172); conditions: % of control specific binding
T20 construct: purchased CEREP
Description: as §1

[23] = target: T21, M5 (h) (Homo sapiens, UniProt P08912); conditions: % of control specific binding
T21 construct: purchased CEREP
Description: as §1

[24] = target: T22, MC4 (h) (Homo sapiens, UniProt P32245); conditions: % of control specific binding
T22 construct: purchased CEREP
T22 sequence (P32245 whole entry): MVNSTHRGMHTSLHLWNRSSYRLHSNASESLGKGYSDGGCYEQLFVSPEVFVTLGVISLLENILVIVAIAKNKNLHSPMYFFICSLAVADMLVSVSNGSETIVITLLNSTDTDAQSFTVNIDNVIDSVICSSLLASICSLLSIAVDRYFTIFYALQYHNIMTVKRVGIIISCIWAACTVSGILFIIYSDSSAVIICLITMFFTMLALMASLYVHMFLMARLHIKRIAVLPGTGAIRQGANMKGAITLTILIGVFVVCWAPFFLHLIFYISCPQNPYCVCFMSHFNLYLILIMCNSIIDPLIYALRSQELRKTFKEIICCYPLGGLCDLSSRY
Description: as §1

[25] = target: T23, MT2 (h) (agonist site) (Homo sapiens, UniProt P49286); conditions: % of control specific binding
T23 construct: purchased CEREP
Description: as §1

[26] = target: T24, NK2 (h) (Homo sapiens, UniProt P21452); conditions: % of control specific binding
T24 construct: purchased CEREP
Description: as §1

[27] = target: T25, NT1 (h) (NTS1) (Homo sapiens, UniProt P30989); conditions: % of control specific binding
T25 construct: purchased CEREP
T25 sequence (P30989 whole entry): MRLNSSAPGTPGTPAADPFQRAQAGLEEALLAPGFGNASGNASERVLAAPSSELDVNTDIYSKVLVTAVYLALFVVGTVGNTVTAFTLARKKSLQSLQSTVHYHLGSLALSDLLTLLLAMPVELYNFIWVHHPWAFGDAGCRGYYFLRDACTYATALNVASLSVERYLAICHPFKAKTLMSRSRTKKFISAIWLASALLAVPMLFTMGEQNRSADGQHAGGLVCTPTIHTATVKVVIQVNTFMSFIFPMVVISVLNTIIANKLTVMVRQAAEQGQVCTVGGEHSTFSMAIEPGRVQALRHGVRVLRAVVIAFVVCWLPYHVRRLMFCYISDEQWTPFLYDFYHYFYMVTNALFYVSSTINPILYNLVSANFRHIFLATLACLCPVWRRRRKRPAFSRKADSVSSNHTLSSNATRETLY
Description: as §1

[28] = target: T26, ORL1 (h) (NOP) (Homo sapiens, UniProt P41146); conditions: % of control specific binding
T26 construct: purchased CEREP
Description: as §1

[29] = test system: P2X; conditions: % of control specific binding
Description: as §1

[30] = test system: P2Y
Description: as §1

[31] = target: T27, PACAP (h) (PAC1) (Homo sapiens, UniProt P41586); conditions: % of control specific binding
T27 construct: purchased CEREP
Description: as §1

[32] = test system: PCP; conditions: % of control specific binding
Description: as §1

[33] = test system: PDGF; conditions: % of control specific binding
Description: as §1

[34] = test system: SK+Ca channel; conditions: % of control specific binding
Description: as §1

[35] = target: T28, TXA2/PGH2 (h) (TP) (Homo sapiens, UniProt P21731); conditions: % of control specific binding
T28 construct: purchased CEREP
T28 sequence (P21731 whole entry): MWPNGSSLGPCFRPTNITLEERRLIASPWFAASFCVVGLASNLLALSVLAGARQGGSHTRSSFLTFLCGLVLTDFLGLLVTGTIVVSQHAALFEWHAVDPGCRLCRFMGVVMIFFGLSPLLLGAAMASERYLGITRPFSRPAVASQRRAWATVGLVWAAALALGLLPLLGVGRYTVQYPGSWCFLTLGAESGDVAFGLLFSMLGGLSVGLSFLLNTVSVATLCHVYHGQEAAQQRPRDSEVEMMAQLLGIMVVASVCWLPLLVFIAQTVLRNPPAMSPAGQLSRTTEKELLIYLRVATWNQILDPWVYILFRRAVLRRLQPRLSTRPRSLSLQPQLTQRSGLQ
Description: as §1

[36] = target: T29, V1a (h) (Homo sapiens, UniProt P37288); conditions: % of control specific binding
T29 construct: purchased CEREP
Description: as §1

[37] = target: T30, VIP1 (h) (VPAC1) (Homo sapiens, UniProt P32241); conditions: % of control specific binding
T30 construct: purchased CEREP
T30 sequence (P32241 31-457): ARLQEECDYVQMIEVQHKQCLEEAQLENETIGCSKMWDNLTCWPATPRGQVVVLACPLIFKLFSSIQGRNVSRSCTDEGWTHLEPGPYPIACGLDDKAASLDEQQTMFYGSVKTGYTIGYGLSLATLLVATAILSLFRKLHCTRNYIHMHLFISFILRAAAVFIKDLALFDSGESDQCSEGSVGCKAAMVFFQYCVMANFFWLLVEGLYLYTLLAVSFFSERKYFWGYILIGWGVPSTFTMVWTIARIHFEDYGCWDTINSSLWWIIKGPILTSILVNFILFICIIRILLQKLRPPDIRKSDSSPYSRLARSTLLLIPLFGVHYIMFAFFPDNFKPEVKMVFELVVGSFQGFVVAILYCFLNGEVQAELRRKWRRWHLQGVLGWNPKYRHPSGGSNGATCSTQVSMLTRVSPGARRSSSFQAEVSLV
Description: as §1

[38] = target: T31, Y1 (h) (Homo sapiens, UniProt P25929); conditions: % of control specific binding
T31 construct: purchased CEREP
Description: as §1

[39] = target: T32, Y2 (h) (Homo sapiens, UniProt P49146); conditions: % of control specific binding
T32 construct: purchased CEREP
T32 sequence (P49146 whole entry): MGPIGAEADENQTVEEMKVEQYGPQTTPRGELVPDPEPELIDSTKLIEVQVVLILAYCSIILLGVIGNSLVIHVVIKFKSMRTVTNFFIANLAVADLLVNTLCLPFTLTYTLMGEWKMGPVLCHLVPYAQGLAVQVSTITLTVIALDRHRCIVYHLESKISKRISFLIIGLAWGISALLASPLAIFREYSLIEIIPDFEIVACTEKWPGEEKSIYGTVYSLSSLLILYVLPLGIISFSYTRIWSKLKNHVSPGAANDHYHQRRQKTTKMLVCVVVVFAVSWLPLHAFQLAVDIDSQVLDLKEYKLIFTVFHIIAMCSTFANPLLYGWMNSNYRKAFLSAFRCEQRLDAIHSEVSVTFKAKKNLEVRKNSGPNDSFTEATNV
Description: as §1

[40] = test system: alpha 2 (non-selective); conditions: % of control specific binding
Description: as §1

[41] = target: T33, beta 1 (h) (Homo sapiens, UniProt P08588); conditions: % of control specific binding
T33 construct: purchased CEREP
Description: as §1

[42] = target: T34, kappa (KOP) (guinea-pig) (Cavia porcellus, UniProt P41144); conditions: % of control specific binding
T34 construct: purchased CEREP
Description: as §1

[43] = test system: sigma (non-selective); conditions: % of control specific binding
Description: as §1

Compound: Cc1nc2ccc(NC(=O)Nc3ccnc4cccnc34)cc2o1.Cl [SB-334867, 1-(2-methylbenzoxazol-6-yl)-3-[1], [5]naphthyridin-4-yl-urea hydrochloride]
- % Control (10 µM) Mean SB [1]: 110.7%
- % Control (10 µM) Mean SB [2]: 106.6%
- % Control (10 µM) Mean SB [3]: 85.9%
- % Control (10 µM) Mean SB [4]: 89.5%
- % Control (10 µM) Mean SB [5]: 99.9%
- displacement of specific binding ([6]; 10 µM, A3): 63%
- % Control (10 µM) Mean SB ([6]; % of control specific binding): 37.5%
- % Control (10 µM) Mean SB [7]: 102.3%
- % Control (10 µM) Mean SB [8]: 114.4%
- % Control (10 µM) Mean SB [9]: 109.9%
- % Control (10 µM) Mean SB [10]: 109.3%
- % Control (10 µM) Mean SB [11]: 108.8%
- % Control (10 µM) Mean SB [12]: 94.5%
- % Control (10 µM) Mean SB [13]: 103.6%
- % Control (10 µM) Mean SB [14]: 82.7%
- % Control (10 µM) Mean SB [15]: 101.2%
- % Control (10 µM) Mean SB [16]: 97.1%
- % Control (10 µM) Mean SB [17]: 96.5%
- % Control (10 µM) Mean SB [18]: 100.3%
- % Control (10 µM) Mean SB [19]: 86.6%
- % Control (10 µM) Mean SB [20]: 108.1%
- % Control (10 µM) Mean SB [21]: 103.6%
- % Control (10 µM) Mean SB [22]: 87.3%
- % Control (10 µM) Mean SB [23]: 103.3%
- % Control (10 µM) Mean SB [24]: 97.9%
- % Control (10 µM) Mean SB [25]: 98.6%
- % Control (10 µM) Mean SB [26]: 96%
- % Control (10 µM) Mean SB [27]: 106.9%
- % Control (10 µM) Mean SB [28]: 102.9%
- % Control (10 µM) Mean SB [29]: 94.9%
- displacement of specific binding ([30]; 10 µM, P2Y (purinergic 2Y)): 64%
- % Control (10 µM) Mean SB ([30]; % of control specific binding): 36.4%
- % Control (10 µM) Mean SB [31]: 107.7%
- % Control (10 µM) Mean SB [32]: 91.8%
- % Control (10 µM) Mean SB [33]: 102.6%
- % Control (10 µM) Mean SB [34]: 114.4%
- % Control (10 µM) Mean SB [35]: 98.8%
- % Control (10 µM) Mean SB [36]: 106.1%
- % Control (10 µM) Mean SB [37]: 101%
- % Control (10 µM) Mean SB [38]: 102.7%
- % Control (10 µM) Mean SB [39]: 113%
- % Control (10 µM) Mean SB [40]: 96.1%
- % Control (10 µM) Mean SB [41]: 85.7%
- % Control (10 µM) Mean SB [42]: 100.8%
- % Control (10 µM) Mean SB [43]: 98.6%

— article PMC3388080 (PLoS ONE, 2012)
